Source: patent US20240268388A1, “AGRICULTURAL AND HORTICULTURAL FUNGICIDAL COMPOSITION” (NIPPON SODA CO., LTD., priority 2021, published 2024)

Key:
[1] = system: soybean rust pathogen (Phakopsora pachyrhizi); assay: Soybean rust control test (leaf discs); format: in vivo
Experimental: Compounds of component (I) and component (II) were dissolved in dimethyl sulfoxide and diluted with water to the prescribed concentration to prepare a chemical agent solution. A mixture of the prescribed concentration of the chemical agent solution and sterile water was prepared on a microplate, and leaf discs cut from soybean leaves were floated on the microplate. Uredospores of soybean rust pathogen (Phakopsora pachyrhizi) were inoculated and incubated at 25° C. for 9 days. The area percentage of lesions was determined by observing uredospore-forming lesions on the leaf discs, and the control value was calculated. The control value was calculated by the following formula:
Control value (%)=100−{Area percentage of lesions in treatment plot/Area percentage of lesions in untreatment plot}×100.
The results are shown in Tables 8 to 18, along with the expected values calculated as below. Each expected values was calculated from the fungicidal efficacy of a single application of compound of component (I) and the fungicidal efficacy of a single application of compound of component (II) by using Colby's equation:
[formula] • where E represents the expected value of the control value for the composition containing component (I) and component (II), M represents the control value (%) when the component (I) is used alone, and N represents the control value (%) when the component (II) is used alone. When the measured control value for the composition containing component (I) and component (II) is greater than the expected value E, the composition containing component (I) and composition (II) should exert a synergistic effect.

[2] = system: wheat leaf blight pathogen (Septoria tritici); assay: Fungicidal test for wheat leaf blight (microplate, turbidity at 405 nm); format: cell-based; conditions: for inhibition at 6.3 ppm / inhibition at 12.5 ppm / inhibition at 25 ppm / inhibition at 50 ppm / inhibition at 100 ppm: component (I) alone
Experimental: Compounds of component (I) and component (II) were dissolved in dimethyl sulfoxide at 10,000 ppm and diluted with water to the prescribed concentration to prepare a chemical agent solution. A mixture of the prescribed concentration of the chemical agent solution, wheat leaf blight pathogen (Septoria tritici) conidia, and malt extract was prepared on a microplate and incubated at 20° C. in the dark for 3 days. The turbidity at a wavelength of 405 nm was measured with a microplate reader, and the growth of wheat leaf blight pathogen was compared with that of no treatment control to determine the growth inhibition rate. The results are shown in Tables 2 to 7, along with the expected values calculated as below.
Each expected value was calculated from the fungicidal efficacy of a single application of the compound of component (I) and the fungicidal efficacy of a single application of compound of component (II) by using Colby's equation (S. R. Colby, Calculating synergistic and antagonistic responses of herbicide combinations, Weeds, 15, 20-22 pp (1967)).
[formula] • where E represents the expected value of the growth inhibition rate (%) for the composition containing component (I) and component (II), M represents the growth inhibition rate (%) when the component (I) is used alone, and N represents the growth inhibition rate (%) when the component (II) is used alone. When the measured growth inhibition rate (%) for the composition containing component (I) and component (II) is greater than the expected value E, the composition containing components (I) and component (II) should exert a synergistic effect.

[3] = Table 15, component (II) alone (component (I): None): Azoxystrobin 0.0001, Inpyrfluxam 0.000025, Chlorothalonil 0.0063, Difenoconazole 0.000025, Cyproconazole 0.000025, Tebuconazole 0.000025, Trifloxystrobin 0.0001, Pyraclostrobin 0.0001, Fluazinam 0.0063, Fluxapyroxad 0.000025, Prothioconazole 0.000025, Florylpicoxamid 0.0001, Benzovindiflupyr 0.000025, Mancozeb 0.0063 ppm
[4] = Table 18, component (II) alone (component (I): None): Azoxystrobin 0.0001, Inpyrfluxam 0.000025, Chlorothalonil 0.0063, Difenoconazole 0.000025, Cyproconazole 0.000025, Tebuconazole 0.000025, Trifloxystrobin 0.0001, Pyraclostrobin 0.0001, Fluazinam 0.0063, Fluxapyroxad 0.000025, Prothioconazole 0.000025, Florylpicoxamid 0.0001, Benzovindiflupyr 0.000025, Mancozeb 0.0063 ppm
[5] = Zymoseptoria tritici, component (II) alone, 0.004 ppm, read-out: growth inhibition rate
[6] = Zymoseptoria tritici, component (II) alone, 0.04 ppm, read-out: growth inhibition rate
[7] = Zymoseptoria tritici, component (II) alone, read-out: growth inhibition rate
[8] = Zymoseptoria tritici, component (II) alone, 16 ppm, read-out: growth inhibition rate
[9] = Table 14, component (II) alone (component (I): None): Inpyrfluxam 0.00025, Chlorothalonil 0.006, Thiophanate-methyl 0.0001, Tebuconazole 0.000025, Trifloxystrobin 0.0001, Fluazinam 0.006, Prothioconazole 0.000025, Florylpicoxamid 0.0001, Metominostrobin 0.0004 ppm
[10] = Table 16, component (II) alone (component (I): None): Inpyrfluxam 0.000025, Chlorothalonil 0.006, Thiophanate-methyl 0.0001, Tebuconazole 0.000025, Trifloxystrobin 0.0001, Fluazinam 0.006, Prothioconazole 0.000025, Florylpicoxamid 0.0001, Metominostrobin 0.0004 ppm
[11] = Table 17, component (II) alone (component (I): None): Inpyrfluxam 0.000026, Chlorothalonil 0.02, Thiophanate-methyl 0.0004, Tebuconazole 0.0001, Trifloxystrobin 0.0001, Fluazinam 0.006, Prothioconazole 0.000025, Florylpicoxamid 0.0001, Metominostrobin 0.0004 ppm
[12] = Zymoseptoria tritici, component (II) alone, 0.25 ppm, read-out: growth inhibition rate
[13] = component (I) alone, 0.0063 ppm
[14] = Zymoseptoria tritici, read-out: growth inhibition rate
[15] = component (II) alone, 0.004 ppm
[16] = Zymoseptoria tritici, component (II) alone, 0.02 ppm, read-out: growth inhibition rate

CC1COC(Cn2cncn2)(c2ccc(Oc3ccc(Cl)cc3)cc2Cl)O1 (centres unmarked) [Difenoconazole, difenoconazole]
control value [1, 3]: 75%
control value [1, 4]: 0%
inhibition at 0.004 ppm [2, 5]: 75%
inhibition at 0.04 ppm [2, 6]: 75%
inhibition at 4 ppm [2, 7]: 85%
inhibition at 16 ppm [2, 8]: 83%
inhibition at 0.0002 ppm ([2]; Zymoseptoria tritici, component (II) alone, .0002 ppm (also printed 0002), read-out: growth inhibition rate): 69%

inpyrfluxam [reference compound]
control value [1, 9]: 16%
control value [1, 3]: 50%
control value [1, 10]: 16%
control value [1, 11]: 16%
control value [1, 4]: 50%
growth inhibition rate ([2]; component (II) alone, 0.01 ppm): 24%
growth inhibition rate ([2]; component (II) alone, 0.04 ppm): 49%

CO/C=C(/C(=O)OC)c1ccccc1Oc1cc(Oc2ccccc2C#N)ncn1 [Azoxystrobin, azoxystrobin, reference compound]
control value [1, 3]: 33%
control value [1, 4]: 0%
growth inhibition rate ([2]; component (II) alone, 0.06 ppm): 10%
growth inhibition rate ([2]; component (II) alone, 1 ppm): 10%

CO/C=C(/C(=O)OC)c1ccccc1COc1cccc(C(F)(F)F)n1 [Picoxystrobin, picoxystrobin]
growth inhibition rate ([2]; component (II) alone, 0.02 ppm): 2%
growth inhibition rate ([2]; component (II) alone, 0.06 ppm): 3%
growth inhibition rate ([2]; component (II) alone, 0.25 ppm): 8%
growth inhibition rate ([2]; component (II) alone, 1 ppm): 8%

Cc1ccc(-c2c(Cl)nc(C#N)n2S(=O)(=O)N(C)C)cc1 [Cyazofamid, cyazofamid]
inhibition at 0.25 ppm [2, 12]: 0%
inhibition at 4 ppm [2, 7]: 6%
inhibition at 16 ppm [2, 8]: 4%
inhibition at 64 ppm [2, 7]: 27%

O=C(Cc1ccc(-c2noc(C(F)(F)F)n2)cc1)N1CC(=NOCC(F)F)C1 [Compound 4]
control value [1, 13]: 18%
control value ([1]; component (I) alone, 0.025 ppm): 28%
control value ([1]; component (I) alone, 0.1 ppm): 67%
control value ([1]; component (I) alone, 0.4 ppm): 97%
inhibition at 6.3 ppm [2, 14]: 36%
inhibition at 12.5 ppm [2, 14]: 49%
inhibition at 25 ppm [2, 14]: 75%
inhibition at 50 ppm [2, 14]: 99%
inhibition at 100 ppm [2, 14]: 100%

Cn1cc(C(=O)Nc2ccc(F)cc2-c2ccc(Cl)c(Cl)c2)c(C(F)F)n1 [Bixafen, bixafen]
growth inhibition rate [2, 15]: 27%

mancozeb
control value [1, 3]: 0%
control value [1, 4]: 0%
growth inhibition rate [2, 15]: 9%
growth inhibition rate ([2]; component (II) alone, 0.02 ppm): 19%
growth inhibition rate ([2]; component (II) alone, 0.06 ppm): 19%

O=S(=O)([O-])[O-].[Cu+2] [Copper sulfate, copper sulfate]
growth inhibition rate ([2]; component (II) alone, 0.25 ppm): 8%
growth inhibition rate ([2]; component (II) alone, 1 ppm): 24%
growth inhibition rate ([2]; component (II) alone, 16 ppm): 73%

Fc1ccc([C@]2(Cn3cncn3)O[C@H]2c2ccccc2Cl)cc1 (racemic) [Epoxiconazole, epoxiconazole]
inhibition at 0.02 ppm [2, 16]: 27%
inhibition at 64 ppm [2, 7]: 94%

O=[N+]([O-])c1cc(C(F)(F)F)c(Cl)c([N+](=O)[O-])c1Nc1ncc(C(F)(F)F)cc1Cl [Fluazinam, fluazinam, reference compound]
control value [1, 9]: 16%
control value [1, 3]: 0%
control value [1, 10]: 16%
control value [1, 11]: 16%
control value [1, 4]: 50%
inhibition at 0.004 ppm [2, 5]: 0%

CON=C(C(=O)OC)c1ccccc1CON=C(C)c1cccc(C(F)(F)F)c1 [Trifloxystrobin, trifloxystrobin, reference compound]
control value [1, 9]: 16%
control value [1, 3]: 0%
control value [1, 10]: 16%
control value [1, 11]: 16%
control value [1, 4]: 75%
control value ([1]; component (II) alone, 0.0004 ppm): 50%
inhibition at 0.25 ppm [2, 12]: 21%

N#Cc1c(Cl)c(Cl)c(Cl)c(C#N)c1Cl [Chlorothalonil, chlorothalonil, reference compound]
control value [1, 9]: 44%
control value [1, 3]: 33%
control value [1, 10]: 44%
control value [1, 11]: 75%
control value [1, 4]: 0%
inhibition at 0.001 ppm ([2]; Zymoseptoria tritici, component (II) alone, 0.001 ppm, read-out: growth inhibition rate): 8%
inhibition at 0.02 ppm [2, 16]: 2%
inhibition at 0.04 ppm [2, 6]: 9%

O=C(Cc1ccc(-c2noc(C(F)(F)F)n2)cc1)N1CCC(=NOC2CCCCO2)CC1 (centres unmarked) [Compound 2]
inhibition at 6.3 ppm [2, 14]: 34%
inhibition at 12.5 ppm [2, 14]: 46%
inhibition at 25 ppm [2, 14]: 52%
inhibition at 50 ppm [2, 14]: 59%
inhibition at 100 ppm [2, 14]: 62%

CC(C1CC1)C(O)(Cn1cncn1)c1ccc(Cl)cc1 (centres unmarked) [Cyproconazole, cyproconazole, reference compound]
control value [1, 3]: 33%
control value [1, 4]: 0%
control value ([1]; component (II) alone, 0.0001 ppm): 88%
inhibition at 0.25 ppm [2, 12]: 15%
inhibition at 1 ppm ([2]; Zymoseptoria tritici, component (II) alone, 1 ppm, read-out: growth inhibition rate): 1%

Cn1cc(C(=O)Nc2cccc3c2[C@@H]2CC[C@H]3C2=C(Cl)Cl)c(C(F)F)n1 (racemic) [Benzovindiflupyr, benzovindiflupyr, reference compound]
control value [1, 3]: 50%
control value [1, 4]: 50%
growth inhibition rate ([2]; component (II) alone, 0.01 ppm): 48%
growth inhibition rate ([2]; component (II) alone, 0.04 ppm): 65%

COC(=O)N(OC)c1ccccc1COc1ccn(-c2ccc(Cl)cc2)n1 [Pyraclostrobin, pyraclostrobin, reference compound]
control value [1, 3]: 33%
control value [1, 4]: 0%
inhibition at 0.02 ppm [2, 16]: 24%
inhibition at 0.25 ppm [2, 12]: 86%

CCON=C1CN(C(=O)Cc2ccc(-c3noc(C(F)(F)F)n3)cc2)C1 [Compound 1]
control value [1, 13]: 12%
control value ([1]; component (I) alone, 0.025 ppm): 48%
control value ([1]; component (I) alone, 0.1 ppm): 75%
control value ([1]; component (I) alone, 0.4 ppm): 99%
inhibition at 6.3 ppm [2, 14]: 44%
inhibition at 12.5 ppm [2, 14]: 58%
inhibition at 25 ppm [2, 14]: 70%
inhibition at 50 ppm [2, 14]: 82%
inhibition at 100 ppm [2, 14]: 90%

CC(C)(C)C(O)(CCc1ccc(Cl)cc1)Cn1cncn1 (centres unmarked) [Tebuconazole, tebuconazole, reference compound]
control value [1, 9]: 44%
control value [1, 3]: 33%
control value [1, 10]: 44%
control value [1, 11]: 86%
control value [1, 4]: 33%
inhibition at 0.016 ppm ([2]; Zymoseptoria tritici, component (II) alone, 0.016 ppm, read-out: growth inhibition rate): 0%
inhibition at 0.063 ppm ([2]; Zymoseptoria tritici, component (II) alone, 0.063 ppm, read-out: growth inhibition rate): 33%
inhibition at 64 ppm [2, 7]: 76%

CCCOC/C(=N\c1ccc(Cl)cc1C(F)(F)F)n1ccnc1 [Triflumizole, triflumizole]
inhibition at 0.06 ppm ([2]; Zymoseptoria tritici, component (II) alone, 0.06 ppm, read-out: growth inhibition rate): 12%
inhibition at 0.25 ppm [2, 12]: 11%
